In one assay the test system is IL-17A mRNA expression. The experiment in a line: Ex-vivo human skin model, IL-17A mRNA expression. It counts as cell-based. To be noted: Th17 cytokine cocktail 24 h, RT-PCR. The method, then: (§1) Fresh ex vivo human skin from healthy bariatric patients, that underwent abdominoplasty skin removal, was de-fatted and dermatomed at 750 μm. Dermatomed skin was incubated twice for 5-10 minutes at room temperature in PBS containing a antibiotic/antimycotic solution: Fungizone (Invitrogen #15290018), PSG (Fisher #BW17718R) and Gentamicin (Invitrogen #15750060). Skin was treated aseptically from this point on. Individual skin samples were obtained by 10 mm punch biopsy and placed in a 0.4 μm PCF membrane transwell (Millicell #PIHP01250) containing 30 μl of a 64% bovine collagen solution. After a 30 minute incubation at 37° C., which allows the collagen solution time to set, skin samples on transwells were transferred to 6-well plates (1 sample per well) and the lower chamber filled with 1 ml complete media (Cornification Media)+hydrocortisone (final concentration of 0.4 μg/ml) with or without test compounds at 10 μM (day −3) and allowed to rest overnight (16-18 h) at 37° C. Next, media was aspirated from the lower chamber, replaced with 1 ml complete media without hydrocortisone and incubated at 37° C. for 1 h. This constituted a ‘wash’ step. Following the hydrocortisone washout, media was again aspirated from the lower chamber and replaced with 1.0 ml complete media without hydrocortisone with or without GSK compounds at 10 μM (day −2). Cultures were incubated at 37° C. in a humidified chamber and media was refreshed one more day (day-1). The following day (day-0), cultures were stimulated for 24 h with a freshly made Th17 cytokine cocktail (CD3, 1 μg/ml, CD28, 2 μg/ml, IL-1b, 10 ng/ml, IL-6, 5 ng/ml, TGFb, 1 ng/ml, IL-21, 10 ng/ml, anti-IL-4, 1 μg/ml and anti-INFg, 1 μg/ml) with or without test compounds at 10 μM. Upon harvest (day +1), skin samples were minced with a razor blade and transferred to 1.5 ml RNAse-free tubes with 1 ml RNAlater solution until later analysis by RT-PCR (stored at −80 C).
(§2) Total RNA was isolated from about 30-40 mg of tissue using Qiagen's (Cat #74106) Mini RNA Isolation kit. Briefly, tissue was homogenized in the Precellys-24 machine using 300 μL of RLT buffer supplemented with 1% 2-Beta-Mercapto-Ethanol at 6300 rpm for 30 seconds for 6 cycles with a 2-minute ice break. 600 μL of water containing Proteinase K was added to the homogenate and digested at 55 C for 15 minutes. Digested tissue was spun down for 3 minutes at 10,000×g and the supernantant was used for RNA isolation using Qiagen's RNeasy mini columns according to manufacturer's protocol. 100 ng of RNA was used as template in a 20 μL PCR volume using Applied Biosciences RNA-to-CT 1 Step kit (AB Catalog #4392938) as well as the specific TaqMan probe for each gene to be quantified. Life Technologies FAM labeled Probes Catalog Numbers are as follows: ACTb=Hs01060665_g1, IL-17A=Hs00174383_m1, IL-17F=Hs00369400_m1, IL-22=Hs01574154_m1. All probes used (except for ACTb) expand an Exon. Applied Biosciences' Master Mix has a ROX dye internal control. OneStepPlus PCR machine was used for both the RT step and the 40 amplification cycles. RNA levels of gene of interest's relative expression were calculated using the Delta Delta CT formula.
(§3) First delta: Normalized to ACTb gene expression
(§4) Second delta: Normalized to sample 13 (Day 0+DMSO) for the gene of interest.

Assay [1] deals with T1, Human RORγ Ligand Binding Domain (RORγ-LBD) (Homo sapiens, UniProt P51449).
T1 construct: His6 with thrombin site) (N); made in house; host or cells: E. coli BL21(DE3), modified pET21a vector
T1 sequence (P51449 263-518): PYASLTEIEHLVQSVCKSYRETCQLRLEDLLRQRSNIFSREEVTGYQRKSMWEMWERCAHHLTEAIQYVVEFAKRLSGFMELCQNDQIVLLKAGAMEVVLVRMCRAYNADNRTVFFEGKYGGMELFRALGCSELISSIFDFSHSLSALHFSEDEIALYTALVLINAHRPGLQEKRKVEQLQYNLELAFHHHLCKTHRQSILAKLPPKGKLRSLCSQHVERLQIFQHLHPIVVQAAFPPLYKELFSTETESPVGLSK
As to the kind of experiment: Dual Fluorescence Energy Transfer (FRET) assay: co-activator SRC1(2) peptide interaction with RORγ-LBD. It counts as biochemical. To be noted: RORγ-LBD / SRC1(2) peptide, read-out: mean pIC50 (converted). From the text:
Dual Fluorescence Energy Transfer (FRET) Assay
This assay is based on the knowledge that nuclear receptors interact with cofactors (transcription factors) in a ligand dependent manner. RORγ is a typical nuclear receptor in that it has an AF2 domain in the ligand binding domain (LBD) which interacts with co-activators.
This assay measures ligand-mediated interaction of the co-activator peptide with the purified bacterial-expressed RORγ ligand binding domain (RORγ-LBD) to indirectly assess ligand binding. RORγ has a basal level of interaction with the co-activator SRC1(2) in the absence of ligand, thus, it is possible to find ligands that inhibit or enhance the RORγ/SRC1(2) interaction.
Human RORγ Ligand Binding Domain (RORγ-LBD) was expressed in E. coli strain BL21(DE3) as an amino-terminal polyhistidine tagged fusion protein. DNA encoding this recombinant protein was sub-cloned into a modified pET21a expression vector (Novagen).
Approximately 50 g E. coli cell pellet was resuspended in 300 mL of lysis buffer (30 mM imidazole pH 7.0 and 150 mM NaCl). Cells were lysed by sonication and cell debris was removed by centrifugation for 30 minutes at 20,000 g at 4° C. […] The clarified lysate was loaded onto a column (XK-26) packed with ProBond Nickel Chelating resin (InVitrogen), pre-equilibrated with 30 mM imidazole pH 7.0 and 150 mM NaCl. After washing to baseline absorbance with the equilibration buffer, the column was developed with a gradient from 30 to 500 mM imidazole pH 7.0. Column fractions containing the RORγ-LBD protein were pooled and concentrated to a volume of 5 mLs. The concentrated protein was loaded onto a Superdex 200 column pre-equilibrated with 20 mM Tris-Cl pH 7.2 and 200 mM NaCl. The fractions containing the desired RORγ-LBD protein were pooled together.
Purified RORγ-LBD was buffer exchanged by exhaustive dialysis [3 changes of at least 20 volumes (>8000×)] against PBS [100 mM NaPhosphate, pH 8 and 150 mM NaCl]. […] The modified RORγ-LBD was dialyzed against 2 buffer changes—TBS pH 8.0 containing 5 mM DTT, 2 mM EDTA and 2% sucrose—each at least 20 times of the volume. The modified protein was distributed into aliquots, frozen on dry ice and stored at −80° C. The biotinylated RORγ-LBD was subjected to mass spectrometric analysis to reveal the extent of modification by the biotinylation reagent.
Biotinylated SRC1(2) solution was prepared by adding an appropriate amount of biotinylated SRC1(2) from the 100 uM stock solution to a buffer containing 10 mM of freshly added DTT from solid to give a final concentration of 40 nM. An appropriate amount of Europium labeled Streptavidin was then added to the biotinylated SRC1(2) solution in a tube to give a final concentration of 10 nM. The tube was inverted gently and incubated for 15 minutes at room temperature. Twenty-fold excess biotin from the 10 mM stock solution was added and the tube was inverted gently and incubated for 10 minutes at room temperature.
Biotinylated RORγ-LBD solution was prepared by adding an appropriate amount of biotinylated RORγ-LBD from the stock solution to a buffer containing 10 mM of freshly added DTT from solid to give a final concentration of 40 nM. An appropriate amount of APC labeled Streptavidin was then added to the biotinylated RORγ-LBD solution in a tube to give a final concentration of 20 nM. The tube was inverted gently and incubated for 15 minutes at room temperature. Twenty-fold excess biotin from the 10 mM stock solution was then added and the tube was inverted gently and incubated for 10 minutes at room temperature.
The reaction mixtures were incubated for 5 minutes. […] The plates were incubated for 1 hour and then read on ViewLux in Lance mode for EU/APC.

The next assay deals with IL-22 mRNA expression. The experiment in a line: Ex-vivo human skin model, IL-22 mRNA expression. It counts as cell-based. To be noted: Th17 cytokine cocktail 24 h, RT-PCR. The method, then: as §1, §2, §3, §4
The test system of another assay is IL-17F mRNA expression. The experiment in a line: Ex-vivo human skin model, IL-17F mRNA expression. It counts as cell-based. To be noted: Th17 cytokine cocktail 24 h, RT-PCR. The method, then: as §1, §2, §3, §4

Marks after values point to notes of the source that are not given here.

As for `CCc1ccc(N(CC(C)C)S(=O)(=O)c2ccc(C(O)CN3CCOCC3)c(CO)c2)cc1` (racemic) [Example E123, N-(4-ethylphenyl)-4-(1-hydroxy-2-morpholinoethyl)-3-(hydroxymethyl)-N-isobutylbenzenesulfonamide], the “Percentage of inhibition of IL-17A mRNA expression” value in the assay on IL-17A mRNA expression (Skin Donor 1, compound 10 μM) was determined as 76% *; in the assay on IL-17A mRNA expression (Skin Donor 2, compound 10 μM), 92% *; with IL-17A mRNA expression (Skin Donor 3, compound 10 μM) it was 73% *; in the assay on IL-17A mRNA expression (Skin Donor 4, compound 10 μM) it was 91% *. Also, the IC50 in assay [1] is 0.0316 µM. For the same compound, the “Percentage of inhibition of IL-22 mRNA expression” value in the assay with IL-22 mRNA expression (Skin Donor 1, compound 10 μM) is 63% *; with IL-22 mRNA expression (Skin Donor 2, compound 10 μM), 57%; in the assay on IL-22 mRNA expression (Skin Donor 3, compound 10 μM), 50%; in the assay on IL-22 mRNA expression (Skin Donor 4, compound 10 μM), 68% *. Also, the “Percentage of inhibition of IL-17F mRNA expression” value came to 55% * with IL-17F mRNA expression (Skin Donor 1, compound 10 μM); 84% * in the assay on IL-17F mRNA expression (Skin Donor 2, compound 10 μM); 65% * with IL-17F mRNA expression (Skin Donor 3, compound 10 μM); 87% * with IL-17F mRNA expression (Skin Donor 4, compound 10 μM).
